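Values below derive from 48-hour exposures of cells grown in 96-well plates, with endpoints linearly interpolated between the two concentrations bracketing the appropriate inhibition level. GI50: concentration for 50% inhibition of growth.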 Activity calls are given as the source filed them. Cut-off read from the data, not from the text of the source: active = GI50 up to about 1.1 µM and inactive = higher.
Key:
Assay in all cases: NCI anticancer screen, dose series, 48 h
786-0 = tested on: 786-0
A498 = tested on: A498
A549 = tested on: A549
ACHN = tested on: ACHN
BT-549 = tested on: BT-549
CAKI-1 = tested on: CAKI-1
CCRF-CEM = tested on: CCRF-CEM
COLO 205 = tested on: COLO 205
DU-145 = tested on: DU-145
EKVX = tested on: EKVX
HCC 2998 = tested on: HCC 2998
HCT-116 = tested on: HCT-116
HCT-15 = tested on: HCT-15
HL-60 = tested on: HL-60
HOP-62 = tested on: HOP-62
HOP-92 = tested on: HOP-92
HT-29 = tested on: HT-29
IGROV-1 = tested on: IGROV-1
K562 = tested on: K562
KM12 = tested on: KM12
LOX IMVI = tested on: LOX IMVI
M14 = tested on: M14
MCF7 = tested on: MCF7
MDA-MB-231 = tested on: MDA-MB-231
MDA-MB-435 = tested on: MDA-MB-435
MOLT-4 = tested on: MOLT-4
NCI-H226 = tested on: NCI-H226
NCI-H23 = tested on: NCI-H23
NCI-H460 = tested on: NCI-H460
NCI-H522 = tested on: NCI-H522
NCI/ADR-RES = tested on: NCI/ADR-RES
OVCAR-3 = tested on: OVCAR-3
OVCAR-4 = tested on: OVCAR-4
OVCAR-5 = tested on: OVCAR-5
OVCAR-8 = tested on: OVCAR-8
PC-3 = tested on: PC-3
RPMI-8226 = tested on: RPMI-8226
RXF 393 = tested on: RXF 393
SF-268 = tested on: SF-268
SF-295 = tested on: SF-295
SF-539 = tested on: SF-539
SK-MEL-28 = tested on: SK-MEL-28
SK-MEL-2 = tested on: SK-MEL-2
SK-MEL-5 = tested on: SK-MEL-5
SK-OV-3 = tested on: SK-OV-3
SN12C = tested on: SN12C
SNB-75 = tested on: SNB-75
SR = tested on: SR
SW-620 = tested on: SW-620
T47D = tested on: T47D
TK-10 = tested on: TK-10
U-251 = tested on: U-251
UACC-257 = tested on: UACC-257
UACC-62 = tested on: UACC-62
UO-31 = tested on: UO-31
Hs-578T = tested on: Hs-578T
MDA-N = tested on: MDA-N
Malme-3M = tested on: Malme-3M
SNB-19 = tested on: SNB-19

Measured: GI50

CC(=O)OC12C3C4C1C1C2C3C41OC(C)=O (stereo not drawn)
> 100 µM: HCT-15
inactive: 786-0 > 100 µM | A498 > 100 µM | A549 > 100 µM | ACHN > 100 µM | BT-549 > 100 µM | CAKI-1 > 100 µM | CCRF-CEM > 100 µM | COLO 205 > 100 µM | DU-145 > 100 µM | EKVX > 100 µM | HCC 2998 > 100 µM | HCT-116 > 100 µM | HL-60 > 100 µM | HOP-62 > 100 µM | HOP-92 > 100 µM | HT-29 > 100 µM | IGROV-1 > 100 µM | K562 > 100 µM | KM12 > 100 µM | LOX IMVI > 100 µM | M14 > 100 µM | MCF7 > 100 µM | MDA-MB-231 > 100 µM | MDA-MB-435 > 100 µM | MOLT-4 > 100 µM | NCI-H226 > 100 µM | NCI-H23 > 100 µM | NCI-H460 > 100 µM | NCI-H522 > 100 µM | NCI/ADR-RES > 100 µM | OVCAR-3 > 100 µM | OVCAR-4 > 100 µM | OVCAR-5 > 100 µM | OVCAR-8 > 100 µM | PC-3 > 100 µM | RPMI-8226 > 100 µM | RXF 393 > 100 µM | SF-268 > 100 µM | SF-295 > 100 µM | SF-539 > 100 µM | SK-MEL-28 > 100 µM | SK-MEL-2 > 100 µM | SK-MEL-5 > 100 µM | SK-OV-3 > 100 µM | SN12C > 100 µM | SNB-75 > 100 µM | SR > 100 µM | SW-620 > 100 µM | T47D > 100 µM | TK-10 > 100 µM | U-251 > 100 µM | UACC-257 > 100 µM | UACC-62 > 100 µM | UO-31 > 100 µM

COC(=O)/C=C\c1ccc2c(c1)CC1(C2)Cc2ccc(/C=C/C(=O)OC)cc2C1 (stereo not drawn)
inactive: 786-0 19.6 µM | A498 > 10 µM | A549 > 31.6 µM | ACHN > 31.6 µM | CCRF-CEM > 31.6 µM | COLO 205 > 31.6 µM | DU-145 > 100 µM | EKVX > 31.6 µM | HCC 2998 > 31.6 µM | HCT-116 24.4 µM | HL-60 > 31.6 µM | HOP-62 15.2 µM | HOP-92 28.4 µM | HT-29 > 31.6 µM | Hs-578T > 31.6 µM | IGROV-1 > 31.6 µM | K562 > 31.6 µM | KM12 > 31.6 µM | LOX IMVI > 31.6 µM | M14 > 31.6 µM | MCF7 21.2 µM | MDA-MB-231 17.2 µM | MDA-MB-435 > 31.6 µM | MDA-N > 31.6 µM | MOLT-4 > 31.6 µM | Malme-3M 29.4 µM | NCI-H226 > 31.6 µM | NCI-H23 > 31.6 µM | NCI-H460 > 100 µM | NCI-H522 17.4 µM | NCI/ADR-RES > 31.6 µM | OVCAR-3 > 31.6 µM | OVCAR-4 22.8 µM | OVCAR-5 > 31.6 µM | OVCAR-8 30.8 µM | PC-3 > 31.6 µM | RPMI-8226 > 31.6 µM | RXF 393 > 31.6 µM | SF-268 > 100 µM | SF-295 21.5 µM | SF-539 30 µM | SK-MEL-28 > 100 µM | SK-MEL-2 > 10 µM | SK-MEL-5 > 31.6 µM | SK-OV-3 > 31.6 µM | SN12C > 31.6 µM | SNB-19 27 µM | SR 5.57 µM | SW-620 > 100 µM | T47D > 31.6 µM | TK-10 > 31.6 µM | U-251 20.7 µM | UACC-257 > 31.6 µM | UACC-62 > 31.6 µM | UO-31 > 31.6 µM
active: CAKI-1 0.918 µM | SNB-75 1.09 µM
> 31.6 µM: HCT-15
